The experiment has as its target T1, Chitinase B (Serratia marcescens, UniProt P11797).
T1 sequence (P11797 whole entry): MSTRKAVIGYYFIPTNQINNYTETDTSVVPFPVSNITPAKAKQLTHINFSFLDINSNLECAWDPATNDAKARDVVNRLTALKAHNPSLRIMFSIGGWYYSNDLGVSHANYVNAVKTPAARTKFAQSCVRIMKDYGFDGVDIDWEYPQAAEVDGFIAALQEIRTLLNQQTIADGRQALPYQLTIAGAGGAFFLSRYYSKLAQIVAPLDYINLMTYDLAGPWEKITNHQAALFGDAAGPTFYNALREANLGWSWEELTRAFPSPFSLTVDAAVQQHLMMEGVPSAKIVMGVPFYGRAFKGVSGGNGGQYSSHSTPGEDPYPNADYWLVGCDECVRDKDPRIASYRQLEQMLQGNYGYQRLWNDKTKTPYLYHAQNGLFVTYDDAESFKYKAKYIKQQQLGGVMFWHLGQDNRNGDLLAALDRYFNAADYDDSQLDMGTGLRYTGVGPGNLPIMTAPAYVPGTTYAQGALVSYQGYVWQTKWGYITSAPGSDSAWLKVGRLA
In words: Inhibition of Serratia marcescens chitinase B.

Our source for the IC50 values is ChEMBL document CHEMBL1151904, “Computer-aided rational molecular design of argifin-derivatives with increased inhibitory activity against chitinase B from Serratia marcescens” (Bioorg Med Chem Lett, 2009).

The structures appear in SMILES notation.

As for `CNC(=O)NC(=N)NCCC[C@@H]1NC(=O)[C@@H](CCSC)NC(=O)C[C@@H](C(=O)O)NC(=O)C[C@@H](C(=O)O)NC(=O)[C@H](Cc2ccccc2)N(C)C1=O`, the IC50 turned out to be 10 µM.

`CNC(=O)NC(N)=NCCC[C@@H]1NC(=O)[C@@H](CC(C)C)NC(=O)C[C@@H](C(=O)O)NC(=O)C[C@@H](C(=O)O)NC(=O)[C@H](Cc2ccccc2)N(C)C1=O` yielded an IC50 of 1.9 µM. Under `CNC(=O)NC(N)=NCCC[C@@H]1NC(=O)[C@@H](Cc2ccccc2)NC(=O)C[C@@H](C(=O)O)NC(=O)C[C@@H](C(=O)O)NC(=O)[C@H](Cc2ccccc2)N(C)C1=O` stands 9.9 µM; under `CNC(=O)NC(N)=NCCC[C@@H]1NC(=O)[C@@H](C)NC(=O)C[C@@H](C(=O)N2CCC(Cc3ccccc3)CC2)NC(=O)C[C@@H](C(=O)O)NC(=O)[C@H](Cc2ccccc2)N(C)C1=O`, 1.3 µM. For `CNC(=O)NC(=N)NCCC[C@@H]1NC(=O)[C@@H](Cc2c[nH]c3ccccc23)NC(=O)C[C@@H](C(=O)O)NC(=O)C[C@@H](C(=O)O)NC(=O)[C@H](Cc2ccccc2)N(C)C1=O`, 4.5 µM corresponded to half-maximal inhibition (IC50). Under `CNC(=O)NC(N)=NCCC[C@@H]1NC(=O)[C@@H](CC(C)C)NC(=O)C[C@@H](C(=O)N2CCC(Cc3ccccc3)CC2)NC(=O)C[C@@H](C(=O)O)NC(=O)[C@H](Cc2ccccc2)N(C)C1=O` stands 0.23 µM; under `CNC(=O)NC(N)=NCCC[C@@H]1NC(=O)[C@@H](C(C)C)NC(=O)C[C@@H](C(=O)O)NC(=O)C[C@@H](C(=O)O)NC(=O)[C@H](Cc2ccccc2)N(C)C1=O`, 6.1 µM.

Usually IC50 stands for the concentration at which inhibition is half-maximal. A higher IC50 goes with lower potency.
